Target: T1, GBA3 (Homo sapiens, UniProt Q9H227)
T1 construct: expressed in transfected cells; host or cells: HEK293T GBA1/GBA2 KO, GBA3 overexpressed
T1 sequence (Q9H227 1-469): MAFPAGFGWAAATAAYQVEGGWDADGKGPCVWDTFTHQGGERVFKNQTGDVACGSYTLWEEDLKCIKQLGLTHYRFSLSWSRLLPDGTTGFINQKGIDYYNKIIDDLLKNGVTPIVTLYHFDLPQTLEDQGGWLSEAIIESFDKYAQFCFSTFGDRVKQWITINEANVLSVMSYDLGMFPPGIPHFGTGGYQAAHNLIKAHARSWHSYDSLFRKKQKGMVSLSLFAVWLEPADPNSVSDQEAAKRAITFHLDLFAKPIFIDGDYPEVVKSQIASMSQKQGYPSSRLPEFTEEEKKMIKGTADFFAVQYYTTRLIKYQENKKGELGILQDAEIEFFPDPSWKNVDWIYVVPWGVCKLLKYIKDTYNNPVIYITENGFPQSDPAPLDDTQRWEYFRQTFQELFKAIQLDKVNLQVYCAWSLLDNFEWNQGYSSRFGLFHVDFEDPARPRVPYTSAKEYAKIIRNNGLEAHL
Test: 4MU fluorogenic substrate assay for apparent IC50, GBA3
Format: biochemical
Conditions: 30 min pre-incubation, 4MU-β-D-Glc
Source text: To identify an ABP that selectively labels human GBA2 over GBA1 and GBA3, a library of cyclophellitol-based ABPs with varying configurations (ESI Fig. S1 ^†) was screened for their selectivity towards human retaining β-glucosidases. For this purpose, we initially assessed the inhibition properties of the compounds using recombinant human GBA1 (rhGBA1, imiglucerase), lysates of cells overexpressing GBA2 or GBA3 (both in combination with knockout of the other retaining β-glucosidases). In a preliminary screen, enzymes were pre-incubated for 30 min with the tested compounds, followed by the addition of the fluorogenic substrate, 4MU-β-D-Glc, and subsequent quantification of released fluorescent 4MU after 30 minutes. This screening brought our attention to a new set of β-D-Araf cyclitol aziridines as potential GBA2 inhibitors. […] On the other hand, the biotin-tagged β-D-Araf compound 6 is a poor inhibitor of all three glucosidases (apparent IC50 > 8 μM). Arabinofuranosyl cyclitol 12–20 with various configurations (α-L-Araf and β-L-Araf) were also evaluated (ESI Fig. S1 ^†).
Recombinant human GBA1 (rhGBA1, Imiglucerase) was kindly provided by Sanofi Genzyme (Cambridge, MA, USA). 4-Methylumbelliferyl-β-D-glucopyranoside substrates were purchase from Glycosynth (Warrington Cheshire, UK). Protein concentration was measured using the Pierce BCA assay kit (Thermo Fisher Scientific, Waltham, MA, USA). Harvested cells (cell pellets), cell lysates and tissue homogenates not used directly were stored at -80 °C.
HEK293T (CRL‐3216™) cells were purchased from ATCC (Manassas, VA, USA). HEK293T cells were cultured in DMEM medium (Sigma‐Aldrich), supplied with 10% (v/v) FCS, 0.1% (w/v) penicillin/streptomycin and 1% (v/v) Glutamax, under 37 °C and 5% or 7% CO2. […]
2.3 Generation of cells genetically modified for β-glucosidase expression For overexpression of the different β-glucosidases, "wildtype" HEK293T cells, HEK293T cells with GBA2 knockout (KO) or HEK293T cells with both GBA1 and GBA2 KO were used, following by the overexpression (OE) of targeted β-glucosidases using the constructs as described in references.1,2 Either GBA2 or GBA3 were overexpressed in GBA1/GBA2 KO HEK293T (generated by the CRISPR/Cas9 method2) to generate GBA1/2 KOs with GBA2 (or GBA3) for overexpression in HEK293T cells as indicated, or using "wildtype" HEK293T cells containing endogenous GBA1 and GBA2 to overexpress both GBA2 and GBA3, these were generated as described in our previous report.1,2 […]
Cells were cultured with the method described above to 80-90% confluency, and were isolated, washed with Dulbecco′s phosphate buffered saline (PBS) and subsequently collected using the following method.3 HEK293T and RPE-1 cells were easily detached from the culture plate by trypsin treatment after which some DMEM medium was added. The cells were collected by pipetting and DMEM medium was removed by centrifuging. The cells were washed with cold PBS three times, after which they were centrifuged to remove PBS and then stored at –80 °C for further use or lysed in potassium phosphate buffer (K2HPO4-KH2PO4, 25 mM, pH 6.5, supplemented with 0.1% (v/v) Triton X-100 and protease inhibitor cocktail (EDTA-free, Roche, Basel, Switzerland)) by sonication with a Polytron PT 1300D sonicator (Kinematica, Luzern, Switzerland). After sonication, lysed mixtures were centrifuged at 10,000 x g for 3 min at 4°C, and the supernatants where desired β-glucosidases exist were used for the experiment.
2.5 4MU fluorogenic substrate assay for apparent IC50 determination
4MU fluorogenic substrate assays (using recombination human rhGBA1 or lysates of HEK293T cells) were conducted in 96-well plates at 37 °C. Samples were diluted with McIlvaine buffer (150 mM citric acid-Na2HPO4) to a final volume of 25 μL, at the appropriate pH for each enzyme. Assays were performed by incubating the samples with 100 μL 4-methylumbelliferyl-β-D-glucopyranoside substrate diluted in McIlvaine buffer for a period of 30 min. […]

[1] = GBA1/GBA2 KO GBA3 OE HEK293T cell lysate, pH 6.0, n = 3 for β-D-Araf, n = 1 for α-L-Araf and β-L-Araf

Compound	IC50 [1]	IC50
CC1=CC(C)=[N+]2C1=C(CCCCc1cn(CCCCCCCCN3[C@@H]4[C@H](CO)[C@@H](O)[C@H](O)[C@@H]43)nn1)c1c(C)cc(C)n1[B-]2(F)F (some centres unmarked) [ABP 3]	> 10 µM	–
CN1/C(=C/C=C/C=C/C2=[N+](CCCCCC(=O)NCc3cn(CCCCCCCCN4[C@@H]5[C@H](CO)[C@@H](O)[C@H](O)[C@@H]54)nn3)c3ccccc3C2(C)C)C(C)(C)c2ccccc21 (some centres unmarked) [ABP 5]	1.52 ± 0.159 µM	–
OC[C@@H]1[C@@H](O)[C@H](O)[C@@H]2N[C@H]12 [Compound 1, β-D-Arabinofuranosyl cyclitol aziridine]	> 50 µM	> 50 µM
COc1ccc(C2=[N+]3C(=C(CCCCc4cn(CCCCCCCCN5[C@@H]6[C@H](CO)[C@@H](O)[C@H](O)[C@@H]65)nn4)c4ccc(-c5ccc(OC)cc5)n4[B-]3(F)F)C=C2)cc1 (some centres unmarked) [ABP 4]	> 10 µM	–
[N-]=[N+]=NCCCCCCCCN1[C@@H]2[C@H](CO)[C@@H](O)[C@H](O)[C@@H]21 (stereo partly drawn) [Compound 2, β-D-arabinofuranosyl cyclitol aziridine-azidooctyl]	8.15 µM	–
O=C(CCCC[C@@H]1SC[C@@H]2NC(=O)N[C@@H]21)NCc1cn(CCCCCCCCN2[C@@H]3[C@H](CO)[C@@H](O)[C@H](O)[C@@H]32)nn1 (some centres unmarked) [ABP 6]	10.3 ± 1.9 µM	> 8 µM
